From patent publication US7566712B2, “Biaryl piperazinyl-pyridine analogues” (Neurogen Corporation, priority 2003, dated 2009)

Target: T1, human capsaicin receptor (Homo sapiens, UniProt Q8NER1)
T1 construct: pBK-CMV expression construct encoding the full length human capsaicin receptor; expressed in transfected cells
Assay: Calcium mobilization assay, determination of antagonist activity (Example 6)
Assay type: cell-based
Conditions: Table II; IC50 determined as described in Example 6 (antagonist activity, calcium mobilization)
How it was run: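 HEK293 clonal lines stably expressing full-length human capsaicin receptor, loaded with Fluo-3 AM in KRH buffer pH 7.4, 1–2 h at 37 °C. Compounds (1–5 μM final) preincubated 0.5–6 h at room temperature, then capsaicin at its EC50 added. FLIPR/Fluoroskan calcium signal; IC50 as 50% decrease of capsaicin response.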

T1 sequence (Q8NER1 whole entry): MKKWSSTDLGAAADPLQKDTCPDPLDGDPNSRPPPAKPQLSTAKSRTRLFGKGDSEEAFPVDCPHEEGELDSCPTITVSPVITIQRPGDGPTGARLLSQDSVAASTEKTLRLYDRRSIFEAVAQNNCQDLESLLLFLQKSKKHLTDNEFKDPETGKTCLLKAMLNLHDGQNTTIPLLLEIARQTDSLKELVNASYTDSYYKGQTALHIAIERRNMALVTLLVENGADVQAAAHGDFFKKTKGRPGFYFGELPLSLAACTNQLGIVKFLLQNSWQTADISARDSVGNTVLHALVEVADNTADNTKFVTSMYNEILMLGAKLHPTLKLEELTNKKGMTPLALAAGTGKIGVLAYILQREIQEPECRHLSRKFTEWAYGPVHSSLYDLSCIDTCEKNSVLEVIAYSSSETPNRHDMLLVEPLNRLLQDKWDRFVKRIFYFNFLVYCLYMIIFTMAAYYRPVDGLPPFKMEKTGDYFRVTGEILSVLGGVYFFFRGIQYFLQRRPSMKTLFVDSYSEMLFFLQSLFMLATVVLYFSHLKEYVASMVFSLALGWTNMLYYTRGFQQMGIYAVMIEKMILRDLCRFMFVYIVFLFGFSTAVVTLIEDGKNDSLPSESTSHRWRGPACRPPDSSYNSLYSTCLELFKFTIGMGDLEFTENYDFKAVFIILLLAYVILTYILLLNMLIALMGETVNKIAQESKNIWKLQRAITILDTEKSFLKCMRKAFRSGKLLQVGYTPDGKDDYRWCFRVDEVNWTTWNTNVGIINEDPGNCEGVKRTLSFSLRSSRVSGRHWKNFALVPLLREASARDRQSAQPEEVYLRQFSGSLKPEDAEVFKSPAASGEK

Row | IC50 [nM] | SMILES
1 | ≤ 1000 | C[C@H]1CN(c2nccnc2Cl)CCN1c1cc(-c2ccc(F)c(Cl)c2)nc(Cl)n1 [Example 971, 2-chloro-4-(3-chloro-4-fluorophenyl)-6-[(2S)-4-(3-chloropyrazin-2-yl)-2-methylpiperazin-1-yl]pyrimidine]
2 | ≤ 1000 | COc1ncc(Cl)c(N2CCN(c3cc(-c4ccc(F)cc4)nc(N4CCOCC4)n3)[C@H](C)C2)n1 [Example 972, 4-[4-[(2R)-4-(5-chloro-2-methoxypyrimidin-4-yl)-2-methylpiperazin-1-yl]-6-(4-fluorophenyl)pyrimidin-2-yl]morpholine]
3 | ≤ 1000 | C[C@@H]1CCCN1c1nc(-c2ccc(F)c(Cl)c2)cc(N2CCN(c3nccnc3Cl)C[C@@H]2C)n1 [Example 973, 4-(3-chloro-4-fluorophenyl)-6-[(2S)-4-(3-chloropyrazin-2-yl)-2-methylpiperazin-1-yl]-2-[(2R)-2-methylpyrrolidin-1-yl]pyrimidine]
4 | ≤ 1000 | C[C@H]1CN(c2nccnc2Cl)CCN1c1cc(-c2ccc(F)c(Cl)c2)nc(N2CCCC2)n1 [Example 974, 4-(3-chloro-4-fluorophenyl)-6-[(2S)-4-(3-chloropyrazin-2-yl)-2-methylpiperazin-1-yl]-2-pyrrolidin-1-ylpyrimidine]
5 | ≤ 1000 | C[C@H]1CN(c2nccnc2Cl)CCN1c1cc(-c2ccc(F)c(Cl)c2)nc(N2CCOCC2)n1 [Example 975, 4-{4-(3-chloro-4-fluorophenyl)-6-[(2S)-4-(3-chloropyrazin-2-yl)-2-methylpiperazin-1-yl]pyrimidin-2-yl}morpholine]
6 | ≤ 1000 | Cc1ccc(-c2cc(N3CCN(c4nccnc4Cl)C[C@H]3C)nc(N3CCCC3)n2)cc1F [Example 978, 4-[(2R)-4-(3-chloropyrazin-2-yl)-2-methylpiperazin-1-yl]-6-(3-fluoro-4-methylphenyl)-2-pyrrolidin-1-ylpyrimidine]

Same assay, conditions: Table II; determined as described in Example 6 (antagonist activity); "*" = 1 micromolar or less

Row | SMILES | IC50 [nM]
7 | C[C@H]1CN(c2ncccc2Cl)CCN1c1cc(-c2ccc(Cl)c(F)c2)nc(N2CCCC2)n1 [Example 957, 4-(4-chloro-3-fluorophenyl)-6-[(2S)-4-(3-chloropyridin-2-yl)-2-methylpiperazin-1-yl]-2-pyrrolidin-1-ylpyrimidine] | ≤ 1000
8 | C[C@@H]1CCCN1c1nc(-c2ccc(Cl)c(F)c2)cc(N2CCN(c3ncccc3Cl)C[C@@H]2C)n1 [Example 958, 4-(4-chloro-3-fluorophenyl)-6-[(2S)-4-(3-chloropyridin-2-yl)-2-methylpiperazin-1-yl]-2-[(2R)-2-methylpyrrolidin-1-yl]pyrimidine] | ≤ 1000
9 | C[C@H]1CN(c2ncccc2Cl)CCN1c1cc(-c2ccc(Cl)c(F)c2)nc(N2CCOCC2)n1 [Example 959, 4-{4-(4-chloro-3-fluorophenyl)-6-[(2S)-4-(3-chtoropyridin-2-yl)-2-methylpiperazin-1-yl]pyrimidin-2-yl}morpholine] | ≤ 1000
10 | C[C@@H]1CCCN1c1cc(-c2ccc(Cl)c(F)c2)nc(N2CCN(c3ncccc3Cl)C[C@@H]2C)n1 [Example 960, 4-(4-chloro-3-fluorophenyl)-2-[(2S)-4-(3-chloropyridin-2-yl)-2-methylpiperazin-1-yl]-6-[(2R)-2-methylpyrrolidin-1-yl]pyrimidine] | ≤ 1000
11 | C[C@H]1CN(c2nccnc2Cl)CCN1c1cc(-c2ccc(Cl)c(F)c2)nc(N2CCCC2)n1 [Example 961, 4-(4-chloro-3-fluorophenyl)-6-[(2S)-4-(3-chloropyrazin-2-yl)-2-methylpiperazin-1-yl]-2-pyrrolidin-1-ylpyrimidine] | ≤ 1000
12 | C[C@H]1CN(c2nccnc2Cl)CCN1c1cc(-c2ccc(Cl)c(F)c2)nc(N2CCOCC2)n1 [Example 962, 4-{4-(4-chloro-3-fluorophenyl)-6-[(2S)-4-(3-chloropyrazin-2-yl)-2-methylpiperazin-1-yl]pyrimidin-2-yl}morpholine] | ≤ 1000
13 | C[C@@H]1CCCN1c1cc(-c2ccc(Cl)c(F)c2)nc(N2CCN(c3nccnc3Cl)C[C@@H]2C)n1 [Example 963, 4-(4-chloro-3-fluorophenyl)-2-[(2S)-4-(3-chloropyrazin-2-yl)-2-methylpiperazin-1-yl]-6-[(2R)-2-methylpyrrolidin-1-yl]pyrimidine] | ≤ 1000
14 | COc1ncc(Cl)c(N2CCN(c3cc(-c4ccc(F)cc4)nc(Cl)n3)[C@H](C)C2)n1 [Example 965, 5-chloro-4-{(3R)-4-[2-chloro-6-(4-fluorophenyl)pyrimidin-4-yl]-3-methylpiperazin-1-yl}-2-methoxypyrimidine] | ≤ 1000
15 | COc1ncc(Cl)c(N2CCN(c3cc(-c4ccc(F)cc4)nc(N4CCC[C@H]4C)n3)[C@H](C)C2)n1 [Example 966, 5-chloro-4-((3R)-4-{6-(4-fluorophenyl)-2-[(2R)-2-methylpyrrolidin-1-yl]pyrimidin-4-yl}-3-methylpiperazin-1-yl)-2-methoxypyrimidine] | ≤ 1000
16 | COc1ncc(Cl)c(N2CCN(c3cc(-c4ccc(F)cc4)nc(N4CCCC4)n3)[C@H](C)C2)n1 [Example 967, 5-chloro-4-{(3R)-4-[6-(4-fluorophenyl)-2-pyrrolidin-1-ylpyrimidin-4-yl]-3-methylpiperazin-1-yl}-2-methoxypyrimidine] | ≤ 1000
17 | COc1ncc(Cl)c(N2CCN(c3nc(-c4ccc(F)cc4)cc(N4CCC[C@H]4C)n3)[C@H](C)C2)n1 [Example 968, 5-chloro-4-((3R)-4-{4-(4-fluorophenyl)-6-[(2R)-2-methylpyrrolidin-1-yl]pyrimidin-2-yl}-3-methylpiperazin-1-yl)-2-methoxypyrimidine] | ≤ 1000
18 | CC1CCCN1c1nc(-c2ccc(F)cc2)cc(N2CCN(c3nc(O)ccc3Cl)C[C@H]2C)n1 (stereo partly shown) [Example 970, 5-chloro-6-{4-[6-(4-fluorophenyl)-2-(2-methylpyrrolidin-1-yl)pyrimidin-4-yl]-3-methylpiperazin-1-yl}pyridin-2-ol] | ≤ 1000

The remaining lines, values ahead:

Row | IC50 [nM] | SMILES
19 | ≤ 1000 | C[C@@H]1CCCN1c1cc(-c2ccc(F)c(Cl)c2)nc(N2CCN(c3ncccc3Cl)C[C@H]2C)n1 [Example 941, 4-(3-chloro-4-fluorophenyl)-2-[(2R)-4-(3-chloropyridin-2-yl)-2-methylpiperazin-1-yl]-6-[(2R)-2-methylpyrrolidin-1-yl]pyrimidine]
20 | ≤ 1000 | C[C@@H]1CN(c2nccnc2Cl)CCN1c1cc(-c2ccc(F)c(Cl)c2)nc(N2CCC[C@H]2C)n1 [Example 942, 4-(3-chloro-4-fluorophenyl)-6-[(2R)-4-(3-chloropyrazin-2-yl)-2-methylpiperazin-1-yl]-2-[(2R)-2-methylpyrrolidin-1-yl]pyrimidine]
21 | ≤ 1000 | C[C@H]1CN(c2ncccc2Cl)CCN1c1cc(-c2ccc(F)c(Cl)c2)nc(Cl)n1 [Example 944, 2-chloro-4-(3-chloro-4-fluorophenyl)-6-[(2S)-4-(3-chloropyridin-2-yl)-2-methylpiperazin-1-yl]pyrimidine]
22 | ≤ 1000 | C[C@@H]1CCCN1c1nc(-c2ccc(F)c(Cl)c2)cc(N2CCN(c3ncccc3Cl)C[C@@H]2C)n1 [Example 945, 4-(3-chloro-4-fluorophenyl)-6-[(2S)-4-(3-chloropyridin-2-yl)-2-methylpiperazin-1-yl]-2-[(2R)-2-methylpyrrolidin-1-yl]pyrimidine]
23 | ≤ 1000 | C[C@H]1CN(c2ncccc2Cl)CCN1c1cc(-c2ccc(F)c(Cl)c2)nc(N2CCCC2)n1 [Example 946, 4-(3-chloro-4-fluorophenyl)-6-[(2S)-4-(3-chloropyridin-2-yl)-2-methylpiperazin-1-yl]-2-pyrrolidin-1-ylpyrimidine]
24 | ≤ 1000 | C[C@H]1CN(c2ncccc2Cl)CCN1c1cc(-c2ccc(F)c(Cl)c2)nc(N2CCOCC2)n1 [Example 947, 4-{4-(3-chloro-4-fluorophenyl)-6-[(2S)-4-(3-chloropyridin-2-yl)-2-methylpiperazin-1-yl]pyrimidin-2-yl}morpholine]
25 | ≤ 1000 | C[C@@H]1CCCN1c1cc(-c2ccc(F)c(Cl)c2)nc(N2CCN(c3ncccc3Cl)C[C@@H]2C)n1 [Example 948, 4-(3-chloro-4-fluorophenyl)-2-[(2S)-4-(3-chloropyridin-2-yl)-2-methylpiperazin-1-yl]-6-[(2R)-2-methylpyrrolidin-1-yl]pyrimidine]
26 | ≤ 1000 | C[C@@H]1CCCN1c1cc(-c2ccc(F)c(F)c2)nc(N2CCN(c3ncccc3Cl)C[C@@H]2C)n1 [Example 949, 2-[(2S)-4-(3-chloropyridin-2-yl)-2-methylpiperazin-1-yl]-4-(3,4-difluorophenyl)-6-[(2R)-2-methylpyrrolidin-1-yl]pyrimidine]
27 | ≤ 1000 | C[C@@H]1CCCN1c1cc(-c2ccc(F)c(F)c2)nc(N2CCN(c3nccnc3Cl)C[C@@H]2C)n1 [Example 950, 2-[(2S)-4-(3-chloropyrazin-2-yl)-2-methylpiperazin-1-yl]-4-(3,4-difluorophenyl)-6-[(2R)-2-methylpyrrolidin-1-yl]pyrimidine]
28 | ≤ 1000 | C[C@@H]1CCCN1c1nc(-c2ccc(F)c(F)c2)cc(N2CCN(c3nccnc3Cl)C[C@@H]2C)n1 [Example 951, 4-[(2S)-4-(3-chloropyrazin-2-yl)-2-methylpiperazin-1-yl]-6-(3,4-difluorophenyl)-2-[(2R)-2-methylpyrrolidin-1-yl]pyrimidine]
29 | ≤ 1000 | C[C@H]1CN(c2ncccc2Cl)CCN1c1cc(-c2ccc(Cl)c(F)c2)nc(Cl)n1 [Example 953, 2-chloro-4-(4-chloro-3-fluorophenyl)-6-[(2S)-4-(3-chloropyridin-2-yl)-2-methylpiperazin-1-yl]pyrimidine]
30 | ≤ 1000 | COc1ccc(Cl)c(N2CCN(c3cc(-c4ccc(F)cc4)nc(N4CCCC4C)n3)[C@H](C)C2)n1 (stereo partly shown) [Example 955, 4-[4-(3-chloro-6-methoxypyridin-2-yl)-2-methylpiperazin-1-yl]-6-(4-fluorophenyl)-2-(2-methylpyrrolidin-1-yl)pyrimidine]
31 | ≤ 1000 | C[C@H]1CN(c2nccnc2Cl)CCN1c1cc(-c2ccc(Cl)c(F)c2)nc(Cl)n1 [Example 956, 2-chloro-4-(4-chloro-3-fluorophenyl)-6-[(2S)-4-(3-chloropyrazin-2-yl)-2-methylpiperazin-1-yl]pyrimidine]
